Measurements taken from patent US20110294992A1, “METAL RESPONSIVE MRI-AGENTS” (The Regents of the University of California, priority 2010, published 2011).
“And” between values parts separate entries of the source, which are not always exact repeats. Identical values can stand only once. Marks after values point to notes of the source that are not given here. Blank lines part the entries; values can stand above or below the compound they belong to.

Experiments:
Format in all cases: physicochemical
[1] = Dysprosium-induced 17O NMR shift (DIS) experiments for q; details: for q (estimated number of inner-sphere water molecules): calculated from q = 9 DyCl3
Experimental: FIG. 8. Plot of [DyCG2] vs. −Δ ppm of the ^17O signal of H2O in the absence and presence of 1 equiv Cu^+. Spectra were acquired at room temperature in 20 mM HEPES buffer, pH 7, at a ^17O Larmor frequency of 67.8 MHz.
To circumvent these issues, we turned our attention to an alternative method for obtaining q values, namely the application of ^17O NMR spectroscopy to Dy^3+ analogs of the CG sensors (DyCG2-6).^114 Specifically, interactions of water ligands with paramagnetic Dy^3+ ions lead to an upfield shift of the ^17O signals of H2O in a manner proportional to both the concentration of Dy^3+ and q. Moreover, this lanthanide-induced shift is largely insensitive to the non-water ligands coordinated to the paramagnetic metal center.^114 Dysprosium-induced shift (DIS) experiments for CG2 and CG3 were performed in 20 mM HEPES buffered to pH 7; CG4 and CG5 spectra were acquired in 10% acetonitrile in 20 mM HEPES buffered to pH 7 owing to solubility and stability of the Cu^+-bound complexes at higher Dy^3+ concentrations required for the DIS measurements (1-200 mmol/kg H2O). Dy concentrations were calculated using molality (with respect to H2O) since the ^17O shift represents the interaction between Dy^3+ and H2O; addition of CH3CN aids in stabilizing certain complexes but should not affect the DIS. The spectral results were calibrated to a DyCl3 standard (q=9) to determine the number of bound water molecules for the CG sensors with and without added Cu^+. A plot of varying DyCl3 concentrations versus DIS in pH 7 HEPES buffer has a slope of 324 ppm/(mol/kg H2O), which corresponds to a 36 ppm/(mol/kg H2O) shift per bound water molecule.
The effects of DyCG2 on the chemical shift of ^17O-labeled H2O were determined in the absence and presence of 1 equiv Cu^+ at various concentrations of Dy^3+ (FIG. 8). In the absence of Cu^+, the measured ^17O shift response for DyCG2 is 9 ppm/(mol/kg H2O), corresponding to q=0.3. When 1 equiv of Cu^+ is added, the observed shift response increases to 72 ppm/(mol/kg H2O), corresponding to q=2.0. […] DIS measurements of DyCG4 and DyCG5 without Cu^+ show slopes of 7 ppm/(mol/kg H2O) (q=0.2) and 12 ppm/(mol/kg H2O) (q=0.3), respectively. Cu^+ binding increases the DIS slopes for DyCG4 and DyCG5 to […] ([…]) and 41 ppm/(mol/kg H2O) (q=1.0), respectively.

[2] = Electrochemical Cu2+/Cu+ reduction potentials of copper-bound CG complexes; details: PBS buffer, pH 7.4
Experimental: CG6 is a unique member of the CG family that is equally responsive to both Cu^+ and Cu^2+. Addition of either Cu^+ or Cu^2+ to CG6 triggers a maximum 73% relaxivity turn-on from r1=2.2 mM^−1s^−1 to r1=3.8 mM^−1s^−1. […] On the other hand, copper-bound CG6, which responds to both Cu^+ and Cu^2+, has the least positive Cu^2+/Cu^+ reduction potential at +0.13 V.

[3] = Longitudinal relaxivity (r1) turn-on response to Cu+ from T1 measurements at 60 MHz; details: 1 equiv Cu^+, 20 mM HEPES buffer, pH 7, 37° C.
Experimental: (§1) The longitudinal relaxivity values for the CG contrast agents in the absence or presence of copper ions were determined using T1 measurements at 60 MHz. Studies were performed at 37° C. in 20 mM HEPES buffered to pH 7, and solutions of the purified CG sensors for relaxivity experiments contained 0.2 mM Gd^3+ as determined by ICP-OES. Spectroscopic data are collected in Table 1.
Upon addition of up to 1 equiv of copper ions, the relaxivity values of the CG contrast agents increase, establishing the ability of these probes to sense copper using the MR modality (Table 1, FIG. 3). CG2, CG3, CG4, and CG5 respond to Cu^+ with relaxivity increases ranging from 92% to 360%. […] These values represent the largest relaxivity enhancements observed to date for metal-activated MR contrast agents and a ca. 9-fold improvement in copper ion response compared to CG1 (41% increase). The observed differences in turn-on Cu^+ responses for benzyl-substituted CG4 (290% increase) versus methyl-substituted CG5 (92% increase) with the same pyridyl-thioether receptor show the marked effects that small peripheral substitutions can have on relaxivity properties.

[4] = Nuclear magnetic relaxation dispersion (NMRD) profiles, Solomon-Bloembergen-Morgan fit; details: copper free
Experimental: FIG. 9. ^1H Nuclear magnetic relaxation dispersion profiles of CG3 and CG3+Cu^+ acquired at 25° C. The solid lines represent the best fit profiles.
As a secondary, independent set of experiments to further probe the mechanisms of copper ion sensing by the CG contrast agents, we also performed nuclear magnetic relaxation dispersion (NMRD) measurements of these sensors in the absence and in the presence of copper ions using a field cycling relaxometer (FIG. 9). The profiles obtained were analyzed following Solomon-Bloembergen-Morgan theory^36-38 for the inner-sphere relaxivity and the Freed model^115 for the outer-sphere relaxivity, fixing the diffusion coefficient (D) at […], the distance between Gd^3+ and the inner sphere water protons (r) at 3.1 Å, and the inner sphere exchange lifetime (τM) at 160 ns, the reported value for the parent complex Gd^3+-DO3A. Profiles were obtained for all compounds in the copper-free state. Profiles in the presence of Cu^n+ were obtained for CG2-4 (Cu^+) and CG6 (Cu^2+).
In fact, the measured outer-sphere relaxivities were so low that, in order to obtain a reasonable fit, the distance of closest approach of outer-sphere water protons (a) was allowed to vary. The distances obtained for the CG complexes (4.2-4.8 Å) were markedly longer than what is observed for typical Gd^3+ contrast agents with greater water access (3.8-4 Å). These values correlate with the copper-free relaxivities of CG2-6; longer a values give lower relaxivities and shorter a values give higher relaxivities. For Cu^+-sensing agents CG2-4, the estimated change in q of 2 as determined by DIS measurements was also observed in the fitted NMRD data. In fact, any attempt to fit the observed NMRD profiles with q=1 led to very poor agreement between experimental and calculated values. The change in q of 1 for CG6 upon addition of Cu^2+ as determined by NMRD is consistent with the lower turn-on response observed with this complex compared to CG2-4. The reduced q modulation for CG6 relative to CG2-4 could indicate that the carboxylic acid moiety used for Cu^2+ binding also interacts with the Gd^3+ center in the Cu^2+-bound state. The fitted rotational correlation times (τR) for copper-bound CG complexes all fall within the range expected for Gd^3+ complexes with molecular weights of 700-800 D. τR values for copper-free CG2-6 were fixed to values close to their copper-bound analogues as fits of NMRD data for q=0 complexes are not sensitive to small changes in τR. The values of Δ^2 (average quadratic transient zero field splitting), τv (electronic correlation time), and τs0 (electronic relaxation time at zero field), which govern the electronic relaxation time, are relatively similar to each other. These NMRD values are closer to those of Gd^3+-DTPA than Gd^3+-DOTA, reflecting the asymmetry of CG2-6.^64

[5] = Metal ion selectivity of relaxivity response (competing metal ions alone or with added copper); details: relaxivity at 60 MHz, 20 mM HEPES, pH 7, 37° C.
Experimental: FIG. 6. Relaxivity responses of CG2 to various metal ions. White bars represent the addition of an excess of the appropriate metal ion (10 mM for Na^+, 2 mM for K^+, Mg^2+, and Ca^2+, and 0.2 mM for Fe^2+, Fe^3+, Cu^2+) to a 0.2 mM solution of CG2. Response to Zn^2+ was measured both at 0.2 mM Zn^2+ (Zn^2+1×) and 2 mM Zn^2+ (Zn^2+10×). Black bars represent the subsequent addition of 0.2 mM Cu^+ to the CG2 solution. Relaxivity measurements were acquired at 37° C. in 20 mM HEPES buffer, pH 7, at a proton Larmor frequency of 60 MHz.
The potential ability of this new family of CG sensors to sense bioavailable copper pools in either or both its predominant oxidation states represents a significant advance over the initial CG1 compound.

[6] = Longitudinal relaxivity (r1) from T1 measurements at 60 MHz, absence of copper; details: no copper; 60 MHz, 20 mM HEPES buffer, pH 7, 37° C., 0.2 mM Gd^3+
Experimental: as §1
Nuclear magnetic relaxation dispersion (NMRD) experiments provide supporting evidence for this proposal (vide infra).

[7] = 10% CH3CN in 20 mM HEPES pH 7, 1 equiv Cu^+
[8] = 10% CH3CN in 20 mM HEPES pH 7, no Cu^+
[9] = 20 mM HEPES, pH 7, 1 equiv Cu^+

- −Δ ppm/[Dy] (DIS slope) [1, 7]: 41 ppm/(mol/kg H2O)
- q (estimated number of inner-sphere water molecules) [1, 7]: 1.0
- −Δ ppm/[Dy] (DIS slope) [1, 8]: 12 ppm/(mol/kg H2O)
Structure (SMILES): CCSCCN(C)Cc1cccc(CN2CCN(CC(=O)[O-])CCN(CC(=O)[O-])CCN(CC(=O)[O-])CC2)n1.[Dy+3] [DyCG5]

- −Δ ppm/[Dy] (DIS slope) [1, 7]: 84 ppm/(mol/kg H2O)
- q (estimated number of inner-sphere water molecules) [1, 7]: 2.1
- −Δ ppm/[Dy] (DIS slope) [1, 8]: 7 ppm/(mol/kg H2O)
Structure (SMILES): CCSCCN(Cc1ccccc1)Cc1cccc(CN2CCN(CC(=O)[O-])CCN(CC(=O)[O-])CCN(CC(=O)[O-])CC2)n1.[Dy+3] [DyCG4]

- −Δ ppm/[Dy] (DIS slope) [1, 9]: 79 ppm/(mol/kg H2O)
- q (estimated number of inner-sphere water molecules) [1, 9]: 2.2
- −Δ ppm/[Dy] (DIS slope) ([1]; 20 mM HEPES, pH 7, no Cu^+): 11 ppm/(mol/kg H2O)
Structure (SMILES): O=C([O-])CN1CCN(CC(=O)[O-])CCN(Cc2cccc(CN3CCSCCSCCSCC3)n2)CCN(CC(=O)[O-])CC1.[Dy+3] [DyCG3]

- Cu^2+/+ E1/2 [2]: 0.58 V vs. SHE
- r1 (1 equiv Cu) [3]: 6.9 mM^−1s^−1 and 6.9^b mM^−1s^−1
- τs0 (electronic relaxation time at zero field) [4]: 96 ps
- r1p 20 MHz 25° C. ([4]; 0.5 mM, 20 mM HEPES pH 7): 1.6 mM⁻¹ s⁻¹
- a (distance of closest approach of outer-sphere water protons) ([4]; best-fit value): 4.7 ± 0.09 Å
- Δ^2 (average quadratic transient zero field splitting) ([4]; best-fit value): 3.2 ± 0.7 10^19 s^−2
- τv (electronic correlation time) ([4]; best-fit value): 27 ± 4.4 ps
- q ([4]; fixed in the fitting procedure): 0^c
- τR (rotational correlation time) ([4]; not experimentally determined, assumed equal to corresponding q ≠ 0 complex (CG5: average of the other complexes)): 130^d ps
- r1 (no Cu) [6]: 1.5 mM⁻¹ s⁻¹
Structure (SMILES): O=C([O-])CN1CCN(CC(=O)[O-])CCN(Cc2cccc(CN3CCSCCSCCSCC3)n2)CCN(CC(=O)[O-])CC1.[Gd+3] [CG3]
- redox specificity of relaxivity response (Cu^+ vs Cu^2+) [5]: give turn-on relaxivity increases with Cu^+ but do not respond to Cu^2+
